Assay results as given in publication PMC4076210, “Discovery of Novel AKT Inhibitors with Enhanced Anti-Tumor Effects in Combination with the MEK Inhibitor” (PLoS ONE, 2014).
Where two headings read alike, the source gives them in different places.

What was measured:
CK2α2(h) = biological target: T1, CK2α2(h) (Homo sapiens, UniProt P19784); assay: Kinase panel; assay type: biochemical
T1 construct: purchased Millipore KinaseProfiler

EphA1(h) = biological target: T2, EphA1(h) (Homo sapiens, UniProt P21709); assay: Kinase panel; assay type: biochemical
T2 construct: purchased Millipore KinaseProfiler
T2 sequence (P21709 26-976): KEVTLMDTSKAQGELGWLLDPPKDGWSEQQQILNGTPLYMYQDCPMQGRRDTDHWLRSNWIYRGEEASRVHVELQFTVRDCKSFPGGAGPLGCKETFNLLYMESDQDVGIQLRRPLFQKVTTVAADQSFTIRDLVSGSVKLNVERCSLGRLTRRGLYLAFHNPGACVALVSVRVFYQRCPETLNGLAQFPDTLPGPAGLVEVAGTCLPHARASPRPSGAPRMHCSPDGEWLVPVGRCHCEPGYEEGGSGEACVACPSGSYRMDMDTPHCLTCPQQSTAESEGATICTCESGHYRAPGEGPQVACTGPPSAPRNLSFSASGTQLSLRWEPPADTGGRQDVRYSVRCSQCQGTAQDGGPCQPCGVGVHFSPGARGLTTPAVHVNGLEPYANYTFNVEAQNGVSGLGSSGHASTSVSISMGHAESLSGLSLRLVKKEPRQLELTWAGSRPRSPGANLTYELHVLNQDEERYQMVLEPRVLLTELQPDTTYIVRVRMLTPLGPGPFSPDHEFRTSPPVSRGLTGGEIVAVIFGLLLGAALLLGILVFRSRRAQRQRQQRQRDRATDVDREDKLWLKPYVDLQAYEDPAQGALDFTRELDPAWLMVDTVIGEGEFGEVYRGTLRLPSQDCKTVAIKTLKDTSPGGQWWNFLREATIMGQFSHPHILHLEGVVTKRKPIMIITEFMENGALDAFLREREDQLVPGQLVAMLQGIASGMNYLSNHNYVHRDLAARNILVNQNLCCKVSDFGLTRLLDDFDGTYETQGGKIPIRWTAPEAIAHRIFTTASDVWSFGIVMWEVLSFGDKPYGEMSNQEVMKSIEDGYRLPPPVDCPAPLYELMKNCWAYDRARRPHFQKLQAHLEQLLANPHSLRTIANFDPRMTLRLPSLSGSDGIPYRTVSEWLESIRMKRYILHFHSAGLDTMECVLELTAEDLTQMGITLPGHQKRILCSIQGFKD

FAK(h) = biological target: T3, FAK(h) (Homo sapiens, UniProt Q05397); assay: Kinase panel; assay type: biochemical
T3 construct: purchased Millipore KinaseProfiler
T3 sequence (Q05397 whole entry): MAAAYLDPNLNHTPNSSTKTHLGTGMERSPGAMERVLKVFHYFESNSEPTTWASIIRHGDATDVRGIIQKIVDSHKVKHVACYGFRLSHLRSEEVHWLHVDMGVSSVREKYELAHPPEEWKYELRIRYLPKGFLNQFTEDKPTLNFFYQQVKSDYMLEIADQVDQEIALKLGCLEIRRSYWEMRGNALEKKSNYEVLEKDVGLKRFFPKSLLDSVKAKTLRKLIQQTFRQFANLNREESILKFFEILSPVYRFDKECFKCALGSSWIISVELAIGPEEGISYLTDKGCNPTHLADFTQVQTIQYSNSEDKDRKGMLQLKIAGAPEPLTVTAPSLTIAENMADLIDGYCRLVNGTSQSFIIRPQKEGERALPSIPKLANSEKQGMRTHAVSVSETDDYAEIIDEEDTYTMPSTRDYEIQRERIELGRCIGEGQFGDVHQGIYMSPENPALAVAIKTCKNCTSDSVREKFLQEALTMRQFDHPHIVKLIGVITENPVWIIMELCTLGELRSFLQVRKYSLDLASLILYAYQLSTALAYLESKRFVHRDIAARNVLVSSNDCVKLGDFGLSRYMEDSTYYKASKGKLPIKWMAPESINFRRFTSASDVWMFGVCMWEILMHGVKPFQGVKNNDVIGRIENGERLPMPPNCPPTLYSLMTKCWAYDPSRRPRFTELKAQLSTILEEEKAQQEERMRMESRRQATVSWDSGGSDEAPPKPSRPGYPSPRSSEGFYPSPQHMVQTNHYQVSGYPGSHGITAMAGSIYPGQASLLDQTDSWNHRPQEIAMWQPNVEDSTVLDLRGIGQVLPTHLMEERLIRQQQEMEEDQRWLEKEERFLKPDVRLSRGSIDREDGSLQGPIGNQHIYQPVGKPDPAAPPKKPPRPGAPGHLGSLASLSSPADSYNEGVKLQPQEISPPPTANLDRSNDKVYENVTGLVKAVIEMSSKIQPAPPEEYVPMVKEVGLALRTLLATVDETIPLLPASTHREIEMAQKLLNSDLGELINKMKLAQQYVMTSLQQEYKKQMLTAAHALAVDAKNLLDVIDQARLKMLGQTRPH

IKKα(h) = biological target: T4, IKKα(h) (Homo sapiens, UniProt O15111); assay: Kinase panel; assay type: biochemical
T4 construct: purchased Millipore KinaseProfiler
T4 sequence (O15111 1-745): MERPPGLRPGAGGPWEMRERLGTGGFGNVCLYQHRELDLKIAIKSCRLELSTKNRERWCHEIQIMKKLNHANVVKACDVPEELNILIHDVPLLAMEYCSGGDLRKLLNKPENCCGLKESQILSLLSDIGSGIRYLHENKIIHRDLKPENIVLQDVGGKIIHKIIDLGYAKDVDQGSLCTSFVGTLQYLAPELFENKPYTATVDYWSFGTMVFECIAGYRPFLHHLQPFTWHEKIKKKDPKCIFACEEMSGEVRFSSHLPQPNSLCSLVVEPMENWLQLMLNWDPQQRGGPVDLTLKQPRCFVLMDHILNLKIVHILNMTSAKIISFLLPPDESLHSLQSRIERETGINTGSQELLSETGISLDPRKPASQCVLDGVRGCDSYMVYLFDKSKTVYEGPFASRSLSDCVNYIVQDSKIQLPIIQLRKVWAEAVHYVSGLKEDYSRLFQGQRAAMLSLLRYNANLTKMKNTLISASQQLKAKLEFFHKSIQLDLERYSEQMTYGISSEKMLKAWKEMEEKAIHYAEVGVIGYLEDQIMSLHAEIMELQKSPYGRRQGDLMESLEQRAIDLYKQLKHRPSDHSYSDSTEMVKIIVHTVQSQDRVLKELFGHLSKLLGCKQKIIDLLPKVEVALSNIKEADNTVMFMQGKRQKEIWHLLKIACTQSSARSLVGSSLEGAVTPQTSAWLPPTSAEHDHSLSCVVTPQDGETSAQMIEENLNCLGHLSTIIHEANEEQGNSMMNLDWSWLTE

MARK1(h) = biological target: T5, MARK1(h) (Homo sapiens, UniProt Q9P0L2); assay: Kinase panel; assay type: biochemical
T5 construct: purchased Millipore KinaseProfiler
T5 sequence (Q9P0L2 whole entry): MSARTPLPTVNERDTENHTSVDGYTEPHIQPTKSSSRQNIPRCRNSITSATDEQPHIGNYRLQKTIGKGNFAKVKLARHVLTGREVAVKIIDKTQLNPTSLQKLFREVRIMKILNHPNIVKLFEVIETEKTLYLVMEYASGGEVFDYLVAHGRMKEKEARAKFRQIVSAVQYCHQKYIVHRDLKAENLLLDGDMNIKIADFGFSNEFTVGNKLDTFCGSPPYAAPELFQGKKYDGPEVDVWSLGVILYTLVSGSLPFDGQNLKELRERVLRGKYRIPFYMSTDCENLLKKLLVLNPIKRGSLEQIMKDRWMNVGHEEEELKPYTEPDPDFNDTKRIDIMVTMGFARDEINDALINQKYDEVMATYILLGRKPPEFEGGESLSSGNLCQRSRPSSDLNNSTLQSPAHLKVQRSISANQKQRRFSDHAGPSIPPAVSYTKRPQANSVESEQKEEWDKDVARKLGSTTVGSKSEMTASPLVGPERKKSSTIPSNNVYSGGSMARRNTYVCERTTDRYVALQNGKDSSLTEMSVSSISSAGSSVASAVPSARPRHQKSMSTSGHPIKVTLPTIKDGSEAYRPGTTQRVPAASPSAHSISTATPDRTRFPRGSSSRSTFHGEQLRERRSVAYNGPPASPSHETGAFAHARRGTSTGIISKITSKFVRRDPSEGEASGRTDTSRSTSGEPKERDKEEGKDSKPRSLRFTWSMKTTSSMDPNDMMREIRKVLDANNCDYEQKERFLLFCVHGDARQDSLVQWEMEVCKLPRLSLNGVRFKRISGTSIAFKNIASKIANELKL

PKCα = PKCα (Homo sapiens, UniProt P17252); assay: Kinase IC50 assay; assay type: biochemical
[1] = system: AKT substrate phosphorylation in LNCaP; assay: Western analysis of AKT signaling; assay type: cell-based, human; conditions: 1 h
Method: Cells treated with DMSO or compounds for different duration were lysed using RIPA buffer (Teknova) containing protease and phosphatase inhibitors (Sigma Aldrich). Equal amounts of protein were resolved in 4–12% SDS-PAGE gels (Invitrogen), transferred onto 0.45 µm PVDF membrane (Invitrogen), and incubated with primary antibodies (1∶1000 dilution) overnight. Antibodies for AKT, phospho-AKT (Ser473 and Thr308), phospho-FOXO (Thr24/32), phospho-MEK1/2 (Ser217/221) were purchased from Cell Signaling Technologies. Phospho-GSK3β (Ser9) antibody was from R&D Systems. PRAS40 and phospho-PRAS40 (Thr246) antibodies were obtained from Millipore. Phospho-ERK1/2 (Tyr204), ERK1/2, and phospho-Caspase 9 (Ser196) antibodies were purchased from Santa Cruz Biotechnologies. Tubulin antibodies were purchased from Sigma Aldrich. Following incubation with primary antibody, blots were washed and incubated with IRDye-680 goat-anti-mouse or IRDye-800CW goat-anti-rabbit antibodies (1; 10,000 dilution; LI-COR) for 1 h. Following thorough washing, blots were analyzed using an infrared imaging system (LI-COR).

T1 sequence (P19784 whole entry): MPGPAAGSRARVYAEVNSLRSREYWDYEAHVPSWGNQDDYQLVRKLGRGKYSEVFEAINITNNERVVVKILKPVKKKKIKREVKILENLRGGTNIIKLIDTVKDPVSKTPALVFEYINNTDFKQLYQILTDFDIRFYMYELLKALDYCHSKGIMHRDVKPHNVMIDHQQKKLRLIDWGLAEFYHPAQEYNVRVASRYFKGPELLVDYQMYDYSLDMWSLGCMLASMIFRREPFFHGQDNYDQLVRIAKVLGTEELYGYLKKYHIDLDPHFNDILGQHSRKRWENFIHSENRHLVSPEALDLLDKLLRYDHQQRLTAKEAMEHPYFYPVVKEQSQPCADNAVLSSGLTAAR

Q: For `Cn1ncc(Cl)c1-c1cc(C(=O)N[C@H](CN)Cc2cccc(F)c2)sc1Cl` [GSK2110183], which inhibition at 0.5 µM (CK2α2(h)) is on record?
A: Its inhibition at 0.5 µM is 2%.

Q: And the inhibition at 10 µM (CK2α2(h))?
A: Its inhibition at 10 µM is 4%.

Q: And the inhibition at 0.5 µM (EphA1(h))?
A: Its inhibition at 0.5 µM is -14%.

Q: And the inhibition at 10 µM (EphA1(h))?
A: The inhibition at 10 µM was -5%.

Q: And the inhibition at 0.5 µM (FAK(h))?
A: Its inhibition at 0.5 µM is 1%.

Q: What about the inhibition at 10 µM (FAK(h)) of the same compound?
A: The inhibition at 10 µM was 39%.

Q: And the inhibition at 0.5 µM (IKKα(h))?
A: The inhibition at 0.5 µM was 9%.

Q: And the inhibition at 10 µM (IKKα(h))?
A: Its inhibition at 10 µM is 8%.

Q: What about the inhibition at 0.5 µM (MARK1(h)) of the same compound?
A: Its inhibition at 0.5 µM is 26%.

Q: What about the inhibition at 10 µM (MARK1(h)) of the same compound?
A: Its inhibition at 10 µM is 88%.

Q: What about the IC50 (PKCα) of the same compound?
A: The IC50 was greater than 1000 nM.

Q: And the “AKT substrate phosphorylation levels (GSK3β, PRAS40, FOXO, Caspase 9)” value [1]?
A: The value was “concentration-dependent effect”.

Q: How did the inhibition at 0.5 µM (CK2α2(h); 0.5 µM, read-out: % Inhibition) turn out when `Cn1ncc(Cl)c1-c1cc(C(=O)N[C@H](CN)Cc2ccc(F)c(F)c2)oc1Cl` [GSK2141795] was run?
A: Its inhibition at 0.5 µM is 1%.

Q: And the inhibition at 10 µM (CK2α2(h); 10 µM, read-out: % Inhibition)?
A: Its inhibition at 10 µM is -5%.

Q: And the inhibition at 0.5 µM (EphA1(h); 0.5 µM, read-out: % Inhibition)?
A: The inhibition at 0.5 µM was 4%.

Q: What about the inhibition at 10 µM (EphA1(h); 10 µM, read-out: % Inhibition) of the same compound?
A: Its inhibition at 10 µM is 53%.

Q: What about the inhibition at 0.5 µM (FAK(h); 0.5 µM, read-out: % Inhibition) of the same compound?
A: Its inhibition at 0.5 µM is -3%.

Q: What about the inhibition at 10 µM (FAK(h); 10 µM, read-out: % Inhibition) of the same compound?
A: Its inhibition at 10 µM is 5%.

Q: And the inhibition at 0.5 µM (IKKα(h); 0.5 µM, read-out: % Inhibition)?
A: The inhibition at 0.5 µM was -12%.

Q: And the inhibition at 10 µM (IKKα(h); 10 µM, read-out: % Inhibition)?
A: Its inhibition at 10 µM is 6%.

Q: And the inhibition at 0.5 µM (MARK1(h); 0.5 µM, read-out: % Inhibition)?
A: The inhibition at 0.5 µM was -11%.

Q: What about the inhibition at 10 µM (MARK1(h); 10 µM, read-out: % Inhibition) of the same compound?
A: The inhibition at 10 µM was 53%.

Q: What about the IC50 (PKCα) of the same compound?
A: Its IC50 is greater than 1000 nM.

Q: And the “AKT substrate phosphorylation levels (GSK3β, PRAS40, FOXO, Caspase 9)” value [1]?
A: Its value is “concentration-dependent effect”.
